Data set [1] deals with C57BL/6Crl mice. On the set-up: method as in Zagzoog et al., 2024. The conditions noted are these: THC, ref Zagzoog et al., 2024, cited from earlier work.
For data set [2] the following is noted: ref Zagzoog et al., 2024, cited from earlier work.
In data set [3] the test system is C57BL/6Crl mice. The arrangement: method as in Zagzoog et al., 2024. Particulars: THC, ref Zagzoog et al., 2024, cited from earlier work. This is another data set of the same source.
Data set [4] concerns C57BL/6Crl mice. On the set-up: method as in Zagzoog et al., 2024. The conditions noted are these: THC, ref Zagzoog et al., 2024, cited from earlier work. The source holds these as a separate data set.
For data set [5] the following is noted: THC 10 mg/kg i.v.; ref Zagzoog et al., 2024; cited from earlier work.
For data set [6], the system named is C57BL/6Crl mice. The data set is described as follows: Open field test (OFT): locomotion and anxiety-like behaviour. The conditions noted are these: for OFT time in the center: compared to the vehicle. The data set is classed as in vivo. The method, then:
Catalepsy was assessed in the ring holding assay; mice were positioned with their forepaws grasping onto a 0.5 cm thick ring clamp elevated 5 cm above the testing surface. The duration of time while the ring was held was recorded in seconds, with each trial terminated if the mouse’s forepaw released from the bar, upon turning of the head or body, or after 60 s of immobility. Catalepsy was evaluated three times consecutively, and the average time spent holding the bar was reported as a percent of the maximum possible effect (% MPE, up to 60 s). Internal body temperature was measured via a rectal thermometer. Nociception was determined by assessing tail-flick latency, where mice were restrained with their tails placed ∼1 cm into 52 °C ± 2 °C water. The time (sec) until the tail was removed was measured, with observations ending at 20 s and represented as a % MPE. Locomotion and anxiety-like behaviour were assessed in the OFT. Mice were placed in an open space (90 cm × 90 cm) and recorded for 5 min. Total distance travelled (cm), velocity (cm/sec), time in the centre quadrant (sec), and central quadrant entries were measured with EthoVision XT (Noldus Information Technology Inc., Leesburg, VA).
In Phase I (Part B), after determining the timepoint at which blood CBG concentrations were highest for each respective route of administration, the timing for each measure in the tetrad was adjusted. An assessment was conducted in a new cohort consisting of both male and female mice (n = 4 per sex per route) receiving a dose of 10 mg/kg of CBG via i.v., i.p., or p.o. routes. For those administered with i.v. CBG, the timing was: catalepsy at 5 min, body temperature at 15 min, tail-flick latency at 20 min, and OFT at 25 min post-injection. For i.p. CBG, measurements were taken at 20 min for catalepsy, 25 min for body temperature, 30 min for tail-flick latency, and 35 min for OFT post-injection. For p.o. CBG, data collection was scheduled as follows: catalepsy at 170 min, body temperature at 175 min, tail-flick latency at 180 min, and OFT at 185 min post-injection.

Read-outs that look alike come from different tables or passages of the source.

The term Cmax denotes the maximum level reached in the sampled fluid or tissue. Take `CCCCCc1cc(O)c2c(c1)OC(C)(C)[C@@H]1CCC(C)=C[C@@H]21` [THC, Δ^9-Tetrahydrocannabinol]: the ED50 catalepsy is reported as 6.9 mg/kg in the data set on C57BL/6Crl mice [1] (both sexes), 6.0 mg/kg in the data set with C57BL/6Crl mice [1] (females) and 8.6 mg/kg in the data set with C57BL/6Crl mice [1] (males). Moreover, the Cmax in data set [2] (10 mg/kg THC i.p.) is reported as 377 ng/mL; in data set [2] (THC p.o.), 149.5 ng/mL. Besides, in data set [2] (THC i.v., males), the “C at 10 min (blood concentration 10 min post-administration)” value is reported as 1,290 ng/mL. For the same compound, the “p.o. Cmax as percent of i.p. Cmax” value in data set [2] (THC) is reported as 40%. In addition, the ED50 body temperature in the data set with C57BL/6Crl mice [3] (both sexes) is listed as 7.8 mg/kg; in the data set on C57BL/6Crl mice [3] (females), 7.3 mg/kg; in the data set with C57BL/6Crl mice [3] (males) it was 8.3 mg/kg. For the same compound, the values for the ED50 tail-flick latency with C57BL/6Crl mice [4] (both sexes), with C57BL/6Crl mice [4] (females) and with C57BL/6Crl mice [4] (males) were 4.1 mg/kg, 3.6 mg/kg and 4.9 mg/kg, respectively. Besides, the mean blood concentration in data set [5] is recorded as 526 ng/mL. Further, the “OFT entries to the center” value in the data set on C57BL/6Crl mice [6] (10 mg/kg i.p., compared to vehicle) is reported as “entered the center fewer times than their vehicle-treated counterparts”; with C57BL/6Crl mice [6] (10 mg/kg i.v., compared to vehicle), “entered the center fewer times than their vehicle-treated counterparts”; with C57BL/6Crl mice [6] (10 mg/kg p.o.), “entered the center of the OFT fewer times than vehicle oral gavage mice”. Also, in the data set with C57BL/6Crl mice [6] (10 mg/kg i.v., 25 min post-administration, male and female mice), the OFT velocity result is given as “reduced velocity compared to vehicle treatment”. Further, the “OFT time in the center” value in the data set on C57BL/6Crl mice [6] (10 mg/kg i.v.) and with C57BL/6Crl mice [6] (10 mg/kg p.o.) was “Time in the center was reduced” throughout.

The record behind these values is publication PMC12722920, “Pharmacokinetics and pharmacodynamics of cannabigerol (CBG) in the C57BL/6Crl mouse” (Frontiers in Pharmacology, 2025).
